Assay: Solubility of active ingredients in solvents

## CCc1cc(C)cc(CC)c1-c1c(OC(=O)C(C)(C)C)n2n(c1=O)CCOCC2 [pinoxaden, 8-(2,6-diethyl-4-methylphenyl)-1,2,4,5-tetrahydro-7-oxo-7H-pyrazolo[1,2-d][1,4,5]oxadiazepin-9-yl 2,2-dimethylpropionate]
1,2-propylene carbonate
  Solvent quality of 1,2-propylene carbonate for the active ingredient: only a moderately good solvent
THFA
  Solvent quality of tetrahydrofurfuryl alcohol (THFA) for the active ingredient: excellent solvent
Benzyl alcohol
  Solvent quality of benzyl alcohol for the active ingredient: excellent solvent
